The target in one test is GCN2 (Homo sapiens, UniProt Q9P2K8). The test can be described thus: GCN2 enzyme assay (TR-FRET Lanthascreen, GFP-eIF2alpha phosphorylation). In kind it is biochemical. To be noted: 10 μM ATP, 80 nM GFP-eIF2a, 30 nM GCN2. In short, it runs like this: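 Phosphorylation of GFP-eIF2alpha (80 nM) by GCN2 run at room temperature with 10 μM ATP. After EDTA quench, product quantified by Lanthascreen TR-FRET (antibody–GFP complex, 340 nm excitation).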

In another test the target is GSK3α(h) (Homo sapiens, UniProt P49840). The test is described as follows: GSK3α radiometric kinase assay (33P-ATP, phospho GS2 peptide). In kind it is biochemical. To be noted: read-out: IC50 GSK3α (enzyme assay). The procedure:
GSK3α(h) is incubated with 8 mM MOPS pH 7,0, 0,2 mM EDTA, 20 μM
[…](p)EDEEE (phosphor GS2 peptide), 10 mM Mg-acetate and [gamma-33P-ATP](specific activity approx. 500 cpm/Pmol, concentration as required). The reaction is initiated by the addition of the MgATP. After incubation for 40 minutes at the room temperature, the Reaction is stopped by the addition of 3% phosphoric acid solution. 10 μL of reaction is then spotted onto a P30 filtermat and washed three times for 5 minutes in 50 mM phosphoric acid and once in methanol prior to drying and scintillation counting.

GCN2, sequence (Q9P2K8 whole entry, species assumed): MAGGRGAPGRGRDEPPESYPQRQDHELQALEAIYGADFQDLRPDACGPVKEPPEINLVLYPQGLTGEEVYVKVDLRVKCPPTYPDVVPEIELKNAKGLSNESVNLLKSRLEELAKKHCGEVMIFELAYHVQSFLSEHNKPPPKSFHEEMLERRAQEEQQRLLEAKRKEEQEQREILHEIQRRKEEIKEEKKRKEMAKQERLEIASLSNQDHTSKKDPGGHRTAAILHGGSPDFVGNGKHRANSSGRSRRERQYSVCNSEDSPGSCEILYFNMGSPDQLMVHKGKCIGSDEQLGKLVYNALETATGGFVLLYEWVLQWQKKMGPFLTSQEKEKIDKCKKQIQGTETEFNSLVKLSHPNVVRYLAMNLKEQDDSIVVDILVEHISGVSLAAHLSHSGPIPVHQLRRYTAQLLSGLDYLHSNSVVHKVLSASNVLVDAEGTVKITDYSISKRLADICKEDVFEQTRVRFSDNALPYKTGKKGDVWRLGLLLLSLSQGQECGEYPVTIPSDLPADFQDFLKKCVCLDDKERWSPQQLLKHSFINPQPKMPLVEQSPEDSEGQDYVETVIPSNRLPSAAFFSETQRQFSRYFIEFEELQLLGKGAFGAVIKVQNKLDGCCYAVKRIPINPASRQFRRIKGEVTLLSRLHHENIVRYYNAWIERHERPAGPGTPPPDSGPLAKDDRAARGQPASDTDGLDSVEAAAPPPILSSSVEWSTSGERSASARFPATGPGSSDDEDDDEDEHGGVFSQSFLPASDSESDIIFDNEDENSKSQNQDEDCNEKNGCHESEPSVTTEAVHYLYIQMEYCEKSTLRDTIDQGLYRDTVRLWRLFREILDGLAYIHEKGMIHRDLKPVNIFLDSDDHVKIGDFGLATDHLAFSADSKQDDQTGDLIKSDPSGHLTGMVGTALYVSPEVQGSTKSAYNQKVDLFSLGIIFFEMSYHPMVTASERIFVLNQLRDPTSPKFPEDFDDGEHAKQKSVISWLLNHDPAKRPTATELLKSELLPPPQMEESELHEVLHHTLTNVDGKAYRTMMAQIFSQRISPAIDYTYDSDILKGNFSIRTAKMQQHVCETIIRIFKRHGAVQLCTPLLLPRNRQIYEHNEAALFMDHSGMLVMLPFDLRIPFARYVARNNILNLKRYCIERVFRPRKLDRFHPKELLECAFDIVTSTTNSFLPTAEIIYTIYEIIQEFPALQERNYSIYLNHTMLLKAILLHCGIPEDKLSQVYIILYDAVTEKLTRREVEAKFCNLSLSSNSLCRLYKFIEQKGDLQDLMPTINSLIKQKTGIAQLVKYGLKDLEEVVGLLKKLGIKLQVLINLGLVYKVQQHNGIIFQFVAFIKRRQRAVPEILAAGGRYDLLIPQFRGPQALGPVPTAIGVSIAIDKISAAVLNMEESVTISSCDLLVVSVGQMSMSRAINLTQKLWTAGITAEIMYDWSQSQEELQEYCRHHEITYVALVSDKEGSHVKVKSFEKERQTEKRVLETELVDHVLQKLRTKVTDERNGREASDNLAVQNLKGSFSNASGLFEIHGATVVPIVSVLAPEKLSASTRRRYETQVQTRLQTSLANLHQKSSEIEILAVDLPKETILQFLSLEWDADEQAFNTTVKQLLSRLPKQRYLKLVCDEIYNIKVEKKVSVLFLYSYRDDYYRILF
GSK3α(h), sequence (P49840 whole entry): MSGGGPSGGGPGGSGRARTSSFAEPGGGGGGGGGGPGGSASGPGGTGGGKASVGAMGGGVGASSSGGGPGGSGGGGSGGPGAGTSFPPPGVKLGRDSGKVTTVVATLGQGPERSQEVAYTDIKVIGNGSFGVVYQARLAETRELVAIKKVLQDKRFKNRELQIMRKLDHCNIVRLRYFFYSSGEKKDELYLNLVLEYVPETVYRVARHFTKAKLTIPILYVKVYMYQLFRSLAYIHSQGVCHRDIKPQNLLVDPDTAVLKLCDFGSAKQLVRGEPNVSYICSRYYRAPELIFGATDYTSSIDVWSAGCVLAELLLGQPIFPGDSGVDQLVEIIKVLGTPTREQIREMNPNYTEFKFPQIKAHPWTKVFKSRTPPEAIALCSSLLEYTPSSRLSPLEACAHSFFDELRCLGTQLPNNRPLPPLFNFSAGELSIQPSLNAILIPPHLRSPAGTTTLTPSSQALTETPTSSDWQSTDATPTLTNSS

On to `O[C@@H]1CC[C@@H](Nc2ncc3nnn(-c4ccc(N5CCCC5)cc4)c3n2)C1` (relative stereo) [A198, (trans)-3-[3-(4-pyrrolidin-1-yl-phenyl)-3H-[1,2,3]triazolo[4,5-d]pyrimidin-5-ylamino]-cyclopentanol], for which the IC50 against GCN2 and on GSK3α(h) was less than 1000 nM each time.

Take `Cc1nc2ccc(-n3nnc4cnc(N[C@@H]5CC[C@@H](O)C5)nc43)cc2o1` (relative stereo) [A199]: the IC50 on GCN2 and on GSK3α(h) was less than 1000 nM throughout.

For the compound `O[C@@H]1CC[C@@H](Nc2ncc3nnn(-c4ccc5nsnc5c4)c3n2)C1` (relative stereo) [A200, (trans)-3-(3-benzo[1,2,5]thiadiazol-5-yl-3H-[1,2,3]triazolo[4,5-d]pyrimidin-5-ylamino)-cyclopentanol], the IC50 on GCN2 and on GSK3α(h) was less than 1000 nM in each case.

Regarding `COc1ccc(-n2nnc3cnc(N[C@H]4CC[C@@H](S(C)(=O)=O)C4)nc32)cc1` (relative stereo) [A264, ((cis)-3-methanesulfonyl-cyclopentyl)-[3-(4-methoxy-phenyl)-3H-[1,2,3]triazolo[4,5-d]pyrimidin-5-yl]-amine], the IC50 against GCN2 and at GSK3α(h) was less than 1000 nM in each case.

Turning to `O[C@@H]1CC[C@@H](Nc2ncc3nnn(-c4ccc(-c5cnn(CCc6nnn[nH]6)c5)cc4)c3n2)C1` (relative stereo) [A266, trans-3-[3-(4-{1-[2-(1H-Tetrazol-5-yl)-ethyl]-1H-pyrazol-4-yl}-phenyl)-3H-[1,2,3]triazolo[4,5-d]pyrimidin-5-ylamino]-cyclopentanol], the IC50 against GCN2 and on GSK3α(h) was less than 1000 nM throughout.

For the compound `COc1ccc(-n2nnc3cnc(N[C@H]4CC[C@H](CO)C4)nc32)cc1` [A111, {(1S,3S)-3-[3-(4-methoxy-phenyl)-3H-[1,2,3]triazolo[4,5-d]pyrimidin-5-ylamino]-cyclopentyl}-methanol], the IC50 at GCN2 and on GSK3α(h) was less than 1000 nM throughout.

As for `COc1ccc(-n2nnc3cnc(N[C@@H]4CCN(C(=O)CCN5CCN(C)CC5)C4)nc32)cc1` [A132, 1-{(R)-3-[3-(4-methoxy-phenyl)-3H-[1,2,3]triazolo[4,5-d]pyrimidin-5-ylamino]-pyrrolidin-1-yl}-3-(4-methyl-piperazin-1-yl)-propan-1-one], the IC50 at GCN2 and on GSK3α(h) was less than 1000 nM each time.

In the case of `NC(=O)[C@H]1CC[C@@H](Nc2ncc3nnn(-c4ccc(N5CCCC5)cc4)c3n2)C1` [A138, (1S,3R)-3-[3-(4-pyrrolidin-1-yl-phenyl)-3H-[1,2,3]triazolo[4,5-d]pyrimidin-5-ylamino]-cyclopentanecarboxylic acid amide], the IC50 at GCN2 and on GSK3α(h) was less than 1000 nM in each case.

Consider `COc1ccc(-n2nnc3cnc(NCCCC(N)=O)nc32)cc1` [A142, 4-[3-(4-methoxy-phenyl)-3H-[1,2,3]triazolo[4,5-d]pyrimidin-5-ylamino]-butyramide], for which the IC50 against GCN2 and on GSK3α(h) was less than 1000 nM in each case.

`COc1ccc(-n2nnc3cnc(N[C@H]4CC[C@H](C(N)=O)CC4)nc32)cc1` [A143, 4-[3-(4-methoxy-phenyl)-3H-[1,2,3]triazolo[4,5-d]pyrimidin-5-ylamino]-cyclohexanecarboxylic acid amide]: the IC50 against GCN2 and at GSK3α(h) was less than 1000 nM in each case.

Turning to `COc1ccc(-n2nnc3cnc(NC(C)CC(N)=O)nc32)cc1` (stereo not drawn) [A144, 3-[3-(4-methoxy-phenyl)-3H-[1,2,3]triazolo[4,5-d]pyrimidin-5-ylamino]-butyramide], the IC50 on GCN2 and at GSK3α(h) was less than 1000 nM throughout.

As to `NC(=O)[C@H]1CC[C@@H](Nc2ncc3nnn(-c4ccc5nsnc5c4)c3n2)C1` [A172, (1S,3R)-3-(3-benzo[1,2,5]thiadiazol-5-yl-3H-[1,2,3]triazolo[4,5-d]pyrimidin-5-ylamino)-cyclopentanecarboxylic acid amide], the half-maximal inhibitory concentration (IC50) on GCN2 and at GSK3α(h) was less than 1000 nM throughout.

For `COc1ccc(-n2nnc3cnc(N[C@@H]4CC[C@@H](C(N)=O)C4)nc32)cn1` [A173, (1R,3R)-3-[3-(6-methoxy-pyridin-3-yl)-3H-[1,2,3]triazolo[4,5-d]pyrimidin-5-ylamino]-cyclopentanecarboxylic acid amide], the IC50 at GCN2 and at GSK3α(h) was less than 1000 nM in each case.

Regarding `NC(=O)[C@@H]1CC[C@@H](Nc2ncc3nnn(-c4ccc5nsnc5c4)c3n2)C1` [A174, (1R,3R)-3-(3-benzo[1,2,5]thiadiazol-5-yl-3H-[1,2,3]triazolo[4,5-d]pyrimidin-5-ylamino)-cyclopentanecarboxylic acid amide], the IC50 on GCN2 and on GSK3α(h) was less than 1000 nM throughout.

In the case of `COc1ccc(-n2nnc3cnc(N[C@@H]4CC[C@@H](C(N)=O)C4)nc32)nc1` [A175, (1R,3R)-3-[3-(5-methoxy-pyridin-2-yl)-3H-[1,2,3]triazolo[4,5-d]pyrimidin-5-ylamino]-cyclopentanecarboxylic acid amide], the IC50 at GCN2 and at GSK3α(h) was less than 1000 nM throughout.

As to `NC(=O)[C@@H]1CC[C@@H](Nc2ncc3nnn(-c4cccc(I)c4)c3n2)C1` [A176, (1R,3R)-3-[3-(3-iodo-phenyl)-3H-[1,2,3]triazolo[4,5-d]pyrimidin-5-ylamino]-cyclopentanecarboxylic acid amide], the IC50 against GCN2 and on GSK3α(h) was less than 1000 nM each time.

Consider `COc1ccc(-n2nnc3cnc(N[C@@H]4CCC[C@@H](O)C4)nc32)cc1` [A201, (1R,3R)-3-[3-(4-methoxy-phenyl)-3H-[1,2,3]triazolo[4,5-d]pyrimidin-5-ylamino]-cyclohexanol], for which, at GCN2, the IC50 (commonly the concentration needed to halve the response being measured) was less than 1000 nM.

Consider `O[C@@H]1CC[C@@H](Nc2ncc3nnn(-c4ccc(-c5cnn(Cc6cccnc6)c5)cc4)c3n2)C1` [A231, (1R,3R)-3-{3-[4-(1-pyridin-3-ylmethyl-1H-pyrazol-4-yl)-phenyl]-3H-[1,2,3]triazolo[4,5-d]pyrimidin-5-ylamino}-cyclopentanol], for which the IC50 on GCN2 is less than 1000 nM.

Compound `NC(=O)[C@@H]1CC[C@@H](Nc2ncc3nnn(-c4ccc(-c5cnn(CCO)c5)cn4)c3n2)C1` [A261, (1R,3R)-3-(3-{5-[1-(2-hydroxy-ethyl)-1H-pyrazol-4-yl]-pyridin-2-yl}-3H-[1,2,3]triazolo[4,5-d]pyrimidin-5-ylamino)-cyclopentanecarboxylic acid amide] came in with an IC50 at GCN2 of less than 1000 nM.

For the compound `NC(=O)[C@@H]1CC[C@@H](Nc2ncc3nnn(-c4ccc(-c5cnn(CCc6nnn[nH]6)c5)cc4)c3n2)C1` [A265, (1R,3R)-3-[3-(4-{1-[2-(1H-tetrazol-5-yl)-ethyl]-1H-pyrazol-4-yl}-phenyl)-3H-[1,2,3]triazolo[4,5-d]pyrimidin-5-ylamino]-cyclopentanecarboxylic acid amide], the IC50 against GCN2 and at GSK3α(h) was less than 1000 nM each time.

`COc1ccc(-n2nnc3cnc(N[C@@H]4CC[C@H](c5ncc(C)o5)C4)nc32)cc1` [A267, [3-(4-methoxy-phenyl)-3H-[1,2,3]triazolo[4,5-d]pyrimidin-5-yl]-[(1R,3S)-3-(5-methyl-oxazol-2-yl)-cyclopentyl]-amine] showed an IC50 on GCN2 of less than 1000 nM.

As to `COc1ccc(-n2nnc3cnc(N[C@@H]4CCN(S(C)(=O)=O)C4)nc32)cc1` [A269a, ((R)-1-Methanesulfonyl-pyrrolidin-3-yl)-[3-(4-methoxy-phenyl)-3H-[1,2,3]triazolo[4,5-d]pyrimidin-5-yl]-amine], the IC50 against GCN2 was less than 1000 nM.

Take `COc1ccc(-n2nnc3cnc(N[C@@H]4CCN(S(N)(=O)=O)C4)nc32)cc1` [A270, (R)-3-[3-(4-methoxy-phenyl)-3H-[1,2,3]triazolo[4,5-d]pyrimidin-5-ylamino]-pyrrolidine-1-sulfonic acid amide]: the IC50 at GCN2 and at GSK3α(h) was less than 1000 nM throughout.

Consider `Cc1ccc2cc(-n3nnc4cnc(N[C@@H]5CCN(C(N)=O)C5)nc43)ccc2n1` [A284, (R)-3-[3-(2-methyl-quinolin-6-yl)-3H-[1,2,3]triazolo[4,5-d]pyrimidin-5-ylamino]-pyrrolidine-1-carboxylic acid amide], for which, at GCN2, the IC50 is less than 1000 nM.

`COc1ccc(-n2nnc3cnc(N[C@@H]4CC[C@@H](N5CCCC5=O)C4)nc32)cc1` [A291, 1-{(1R,3R)-3-[3-(4-methoxy-phenyl)-3H-[1,2,3]triazolo[4,5-d]pyrimidin-5-ylamino]-cyclopentyl}-pyrrolidin-2-one] registered an IC50 against GCN2 of less than 1000 nM.

For `Cn1cc(CNc2ncc3nnn(-c4ccc(Cl)c(F)c4)c3n2)cn1` [B4, [3-(4-chloro-3-fluoro-phenyl)-3H-[1,2,3]triazolo[4,5-d]pyrimidin-5-yl]-(1-methyl-1H-pyrazol-4-ylmethyl)-amine], on GCN2, the IC50 lay within 1000 to 5000 nM.

At GCN2, `COCCOc1ccc(-n2nnc3cnc(NCc4cnn(C)c4)nc32)cc1` [B6, {3-[4-(2-methoxy-ethoxy)-phenyl]-3H-[1,2,3]triazolo[4,5-d]pyrimidin-5-yl}-(1-methyl-1H-pyrazol-4-ylmethyl)-amine] came in with a half-inhibitory concentration (IC50) of 1000 to 5000 nM.

In the case of `CCOc1ccc(-n2nnc3cnc(NCCc4cnn(C)c4)nc32)cc1` [B7, [3-(4-ethoxy-phenyl)-3H-[1,2,3]triazolo[4,5-d]pyrimidin-5-yl]-[2-(1-methyl-1H-pyrazol-4-yl)-ethyl]-amine], the IC50 at GCN2 was less than 1000 nM.

With `CCOc1ccc(-n2nnc3cnc(NCCc4cn[nH]c4)nc32)cc1` [B9, [3-(4-ethoxy-phenyl)-3H-[1,2,3]triazolo[4,5-d]pyrimidin-5-yl]-[2-(1H-pyrazol-4-yl)-ethyl]-amine], the IC50 on GCN2 is less than 1000 nM.

On GCN2, `COc1ccc(-n2nnc3cnc(NCCc4ccccc4)nc32)cc1` [B10, [3-(4-methoxy-phenyl)-3H-[1,2,3]triazolo[4,5-d]pyrimidin-5-yl]-phenethyl-amine] registered an IC50 of 1000 to 5000 nM.

(Values after patent US9855268B2, “Triazolo[4,5-d]pyrimidine derivatives” (Merck Patent GmbH, priority 2013, dated 2018).)
